US12643905B2, “Spiropyrrolidine derived antiviral agents” (priority 2021, dated 2026)
Where two headings read alike, the source gives them in different places.

Assays:
SARS-CoV-2 3CL-protease = SARS-CoV-2 3CL-protease (Severe acute respiratory syndrome coronavirus 2, UniProt P0DTD1); assay: SARS-CoV-2 3C-like (3CL) protease fluorescence assay (FRET); assay type: biochemical; conditions: 30 min preincubation, run in duplicate
[1] = system: 229E human corona virus (hCoV); assay: 229E live virus assay (CPE, ATPlite readout in MRC-5 cells); assay type: cell-based, hCoV-229E; conditions: Human coronavirus 229E, MRC5, 144 h, MOI 0.05, 6 days at 34° C., run in duplicate
[2] = recombinant SARS-CoV-2 3CL-protease 10 nM, read-out: FRET IC50

CC(C)(C)C[C@H](NC(=O)C(=O)NC1(C(F)(F)F)CC1)C(=O)N1C[C@]2(C[C@H]1C#N)C(=O)Nc1ccccc12 [Example 134]
IC50 (SARS-CoV-2 3CL-protease; [2]): < 0.1 µM

CN(C(=O)C(=O)Nc1ccc(C(F)(F)F)cc1C(F)(F)F)[C@@H](CC1CC1)C(=O)N1C[C@]2(C[C@H]1C#N)C(=O)Nc1ccccc12 [Example 198]
IC50 (SARS-CoV-2 3CL-protease; FRET IC50, recombinant SARS-CoV-2 3CL-protease 10 nM): < 0.1 µM

CC(C)(C)C[C@H](NC(=O)C(=O)Nc1cncc(C(F)(F)F)c1)C(=O)N1C[C@]2(C[C@H]1C#N)C(=O)Nc1ccccc12 [Example 157]
IC50 (SARS-CoV-2 3CL-protease; [2]): < 0.1 µM

CC(C)(C)C[C@H](NC(=O)C(=O)Nc1c(Cl)cccc1C(F)(F)F)C(=O)N1C[C@]2(C[C@H]1C#N)C(=O)Nc1ccccc12 [Example 197]
IC50 (SARS-CoV-2 3CL-protease; [2]): < 0.1 µM

CC(C)(C)C[C@H](NC(=O)C(=O)Nc1ccc2ncccc2c1)C(=O)N1C[C@]2(C[C@H]1C#N)C(=O)Nc1ccccc12 [Example 114]
IC50 (SARS-CoV-2 3CL-protease; [2]): < 0.1 µM

CC(C)(C)C[C@H](NC(=O)C(=O)OC(C)(C)C)C(=O)N1C[C@]2(C[C@H]1C#N)C(=O)Nc1ccccc12 [Example 188]
IC50 (SARS-CoV-2 3CL-protease; [2]): 0.1 to 1 µM

Cc1cccnc1NC(=O)C(=O)N[C@@H](CC(C)(C)C)C(=O)N1C[C@]2(C[C@H]1C#N)C(=O)Nc1ccccc12 [Example 126]
IC50 (SARS-CoV-2 3CL-protease; [2]): < 0.1 µM

CN(C(=O)C(=O)Nc1c(Cl)cccc1Cl)[C@@H](CC(C)(C)C)C(=O)N1C[C@]2(C[C@H]1C#N)C(=O)Nc1ccccc12 [Example 151]
IC50 (SARS-CoV-2 3CL-protease; [2]): < 0.1 µM

CC(C)(C)C[C@H](NC(=O)C(=O)OCc1ccccc1)C(=O)N1C[C@]2(C[C@H]1C#N)C(=O)Nc1ccccc12 [Example 189]
IC50 (SARS-CoV-2 3CL-protease; [2]): > 1 µM

CN(C(=O)C(=O)N[C@@H](CC(C)(C)C)C(=O)N1C[C@]2(C[C@H]1C#N)C(=O)Nc1ccccc12)C1CC1 [Example 109]
IC50 (SARS-CoV-2 3CL-protease; [2]): > 1 µM

CC(C)(C)C[C@H](NC(=O)C(=O)Nc1c(F)cccc1Cl)C(=O)N1C[C@]2(C[C@H]1C#N)C(=O)Nc1ccccc12 [Example 146]
IC50 (SARS-CoV-2 3CL-protease; [2]): < 0.1 µM

CC(C)(C)C[C@H](NC(=O)C(=O)N[C@@H]1CC2CC[C@H](C2)C1)C(=O)N1C[C@]2(C[C@H]1C#N)C(=O)Nc1ccccc12 [Example 165]
IC50 (SARS-CoV-2 3CL-protease; [2]): < 0.1 µM

CC(C)(C)C[C@H](NC(=O)C(=O)NC1(c2ccc(C(F)(F)F)cc2)CC1)C(=O)N1C[C@]2(C[C@H]1C#N)C(=O)Nc1ccccc12 [Example 108]
IC50 (SARS-CoV-2 3CL-protease; [2]): < 0.1 µM

CC(C)(C)C[C@H](NC(=O)C(=O)Nc1cnccc1C(F)(F)F)C(=O)N1C[C@]2(C[C@H]1C#N)C(=O)Nc1ccccc12 [Example 156]
IC50 (SARS-CoV-2 3CL-protease; [2]): < 0.1 µM

CC(C)C[C@@H](C(=O)N1C[C@]2(C[C@H]1C#N)C(=O)Nc1ccccc12)N(C)C(=O)C(=O)Nc1ccc(F)cc1F [Example 1]
EC50 [1]: < 0.1 µM

CC(C)(C)C[C@H](NC(=O)C(=O)Nc1cc(F)cc(F)c1)C(=O)N1C[C@]2(C[C@H]1C#N)C(=O)Nc1ccccc12 [Example 86]
IC50 (SARS-CoV-2 3CL-protease; [2]): < 0.1 µM

N#C[C@@H]1C[C@@]2(CN1C(=O)[C@H](CC1CC1)NC(=O)C(=O)Nc1cccc(C(F)(F)F)n1)C(=O)Nc1ccccc12 [Example 170]
IC50 (SARS-CoV-2 3CL-protease; [2]): < 0.1 µM

CC(C)(C)C[C@H](NC(=O)C(=O)Nc1ccnc(C(F)(F)F)c1)C(=O)N1C[C@]2(C[C@H]1C#N)C(=O)Nc1ccccc12 [Example 128]
IC50 (SARS-CoV-2 3CL-protease; [2]): < 0.1 µM

CC(C)(C)C[C@H](NC(=O)C(=O)Nc1c(Cl)cccc1C#N)C(=O)N1C[C@]2(C[C@H]1C#N)C(=O)Nc1ccccc12 [Example 148]
IC50 (SARS-CoV-2 3CL-protease; [2]): < 0.1 µM

CC(C)(C)C[C@H](NC(=O)C(=O)C1CC1)C(=O)N1C[C@]2(C[C@H]1C#N)C(=O)Nc1ccccc12 [Example 178]
IC50 (SARS-CoV-2 3CL-protease; [2]): 0.1 to 1 µM

CC(C)(C)C[C@H](NC(=O)C(=O)N1CCCCC1)C(=O)N1C[C@]2(C[C@H]1C#N)C(=O)Nc1ccccc12 [Example 110]
IC50 (SARS-CoV-2 3CL-protease; [2]): > 1 µM

CC(C)(C)C[C@@H](C(=O)N1C[C@]2(C[C@H]1C#N)C(=O)Nc1ccccc12)N(CC(F)(F)F)C(=O)C(=O)Nc1ccccc1 [Example 65]
IC50 (SARS-CoV-2 3CL-protease; [2]): 0.1 to 1 µM

CC(C)(C)C[C@H](NC(=O)C(=O)Nc1ccc(C(F)(F)F)nc1)C(=O)N1C[C@]2(C[C@H]1C#N)C(=O)Nc1ccccc12 [Example 158]
IC50 (SARS-CoV-2 3CL-protease; [2]): < 0.1 µM

CC(C)(C)C[C@H](NC(=O)C(=O)NC1CCC1)C(=O)N1C[C@]2(C[C@H]1C#N)C(=O)Nc1ccccc12 [Example 87]
EC50 [1]: < 0.1 µM

N#C[C@@H]1C[C@@]2(CN1C(=O)[C@H](CC1CC1)NC(=O)C(=O)Nc1ccc(C(F)(F)F)nc1)C(=O)Nc1ccccc12 [Example 174]
IC50 (SARS-CoV-2 3CL-protease; [2]): < 0.1 µM

N#C[C@@H]1C[C@@]2(CN1C(=O)[C@H](CC1CC1)NC(=O)C(=O)Nc1cnccc1C(F)(F)F)C(=O)Nc1ccccc12 [Example 172]
IC50 (SARS-CoV-2 3CL-protease; [2]): < 0.1 µM

CC(C)(C)C[C@H](NC(=O)C(=O)Nc1ncccc1F)C(=O)N1C[C@]2(C[C@H]1C#N)C(=O)Nc1ccccc12 [Example 121]
IC50 (SARS-CoV-2 3CL-protease; [2]): < 0.1 µM

CC(C)(C)C[C@H](NC(=O)C(=O)Nc1cccc(C(F)(F)F)n1)C(=O)N1C[C@]2(C[C@H]1C#N)C(=O)Nc1ccccc12 [Example 155]
IC50 (SARS-CoV-2 3CL-protease; [2]): < 0.1 µM
